Activity calls are given as the source filed them. The rule behind the calls is not given here.
Experiments:
[1] = Aqueous solubility of the compound; assay type: physicochemical; settings: buffer
Autotaxin [2] = target: T1, Autotaxin (Homo sapiens, UniProt Q13822); assay: Inhibition of human recombinant ATX lysophospholipase activity expressed in insect sf9 cells using FS-3 fluorogenic substrate preincubated for 10 mins measured after 5 and 25 mins by fluorometric analysis
Autotaxin [3] = target: T1, Autotaxin; assay: Inhibition of human recombinant ATX lysophospholipase activity expressed in insect sf9 cells using FS-3 fluorogenic substrate at 10 uM preincubated for 10 mins measured after 5 and 25 mins by fluorometric analysis

## CCCCCCCCCCCCCC(=O)Nc1ccc(CP(=O)(O)O)cc1.NC1CCCCC1
[1]; read-out: solubility
  solubility: 1000 µg/mL
Autotaxin [2]
  Ki: 9 nM

## CCCCCCC(=O)Nc1ccc(C(F)P(=O)(O)O)cc1.NC1CCCCC1 (stereo not given)
Autotaxin [2]
  Ki: 834 nM

## CCCCCCCCCC(=O)Nc1ccc(CP(=O)(O)O)cc1.NC1CCCCC1
Autotaxin [2]
  Ki: 18 nM

## CCCCCCCCCC(=O)Nc1ccc(C(F)P(=O)(O)O)cc1.NC1CCCCC1 (stereo not given)
Autotaxin [2]
  Ki: 72 nM

## CCCCCCCCCC(=O)Nc1ccc(C(O)P(=O)(O)O)cc1.NC1CCCCC1 (stereo not given)
[1]; read-out: solubility
  solubility: 4000 µg/mL
Autotaxin [2]
  Ki: 24.2 nM

## CCOP(=O)(Cc1ccc(N)cc1)OCC
[1]
  solubility: soluble
Autotaxin [3]
  inhibition: inactive

## CCCCCCCCCCCCCC(=O)Nc1ccc(C(Br)P(=O)(O)O)cc1.NC1CCCCC1 (stereo not given)
Autotaxin [2]
  Ki: 8.1 nM

## CCCCCCC(=O)Nc1ccc(C(O)P(=O)(O)O)cc1.NC1CCCCC1 (stereo not given)
Autotaxin [2]
  Ki: 1010 nM

## CCCCCCCCCCCCCC(=O)Nc1ccc(C(O)P(=O)(O)O)cc1.NC1CCCCC1 (stereo not given)
Autotaxin [2]
  Ki: 24 nM

## CCCCCCCCCCCCCC(=O)Nc1ccc(C(F)P(=O)(O)O)cc1.NC1CCCCC1 (stereo not given)
Autotaxin [2]
  Ki: 6.1 nM

## COCCOCCOCCC(=O)Nc1ccc(CP(=O)(O)O)cc1.NC1CCCCC1
Autotaxin [3]
  inhibition: inactive

## CCCCCCC(=O)Nc1ccc(CP(=O)(O)O)cc1.NC1CCCCC1
Autotaxin [2]
  Ki: 512 nM

— ChEMBL document CHEMBL1817542, “Aromatic phosphonates inhibit the lysophospholipase D activity of autotaxin” (Bioorg Med Chem Lett, 2011)
